Source: patent publication US8053465B2, “Bicycloester derivative” (Kyorin Pharmaceutical Co., Ltd., priority 2004, dated 2011)

Legend:
[1] = molecular target: T1, plasma dipeptidylpeptidase IV (Mus musculus, UniProt P28843); assay: Inhibition of plasma dipeptidylpeptidase IV activity in mice by oral administration; format: in vivo; settings: male ICR mice, 0.1 mg/mL suspension at 10 mL/kg, 30 minutes after administration
T1 construct: The blood samples were centrifuged at 6000 rpm for 2 minutes to separate plasma; tissue Charles River Laboratories Japan; host or cells: plasma of male ICR mice
T1 sequence (P28843 whole entry): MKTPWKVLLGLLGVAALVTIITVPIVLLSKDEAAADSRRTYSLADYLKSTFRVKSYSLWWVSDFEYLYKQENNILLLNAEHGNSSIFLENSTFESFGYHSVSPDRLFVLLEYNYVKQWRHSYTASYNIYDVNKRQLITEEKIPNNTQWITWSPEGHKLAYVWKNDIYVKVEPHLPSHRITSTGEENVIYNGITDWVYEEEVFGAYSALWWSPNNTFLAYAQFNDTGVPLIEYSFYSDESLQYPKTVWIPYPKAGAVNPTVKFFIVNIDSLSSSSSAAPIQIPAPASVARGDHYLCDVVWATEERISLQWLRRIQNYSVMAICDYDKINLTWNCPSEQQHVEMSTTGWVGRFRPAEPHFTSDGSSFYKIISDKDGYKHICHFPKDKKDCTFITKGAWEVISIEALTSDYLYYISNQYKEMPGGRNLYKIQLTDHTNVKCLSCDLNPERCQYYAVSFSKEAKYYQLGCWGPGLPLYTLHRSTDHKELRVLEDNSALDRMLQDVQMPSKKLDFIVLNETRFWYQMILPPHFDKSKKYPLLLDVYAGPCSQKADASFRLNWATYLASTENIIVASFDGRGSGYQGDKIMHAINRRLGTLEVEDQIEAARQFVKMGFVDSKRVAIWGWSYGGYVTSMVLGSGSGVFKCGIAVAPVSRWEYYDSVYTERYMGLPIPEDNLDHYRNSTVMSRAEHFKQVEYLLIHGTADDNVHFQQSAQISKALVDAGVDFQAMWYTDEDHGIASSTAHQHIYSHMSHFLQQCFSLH
Method: Each compound was suspended in 0.3% sodium carboxymethylcellulose to a concentration of 0.1 mg/mL. The preparation was orally administered to 8-week old male ICR mice (Charles River Laboratories Japan) at a dose of 10 mL/kg. Using an EDTA 2K-treated capillary tube, blood samples were collected from the tail vein before administration and 30 minutes after administration. The blood samples were centrifuged at 6000 rpm for 2 minutes to separate plasma. […] The inhibition was determined from the decrease in the enzymatic activity from the initial activity (% inhibition={(activity before administration−activity after administration)/(activity before administration)}×100).

[2] = molecular target: T2, plasma dipeptidylpeptidase IV (Homo sapiens, UniProt P27487); assay: In vitro dipeptidylpeptidase IV inhibitory activity (plasma, H-Gly-Pro-AMC fluorometry); format: biochemical; settings: plasma diluted 8-fold, H-Gly-Pro-AMC.HBr substrate, room temperature 20 minutes
T2 construct: 20 μL of plasma diluted 8-fold with saline in a well of a 96-well flat bottom plate; from tissue
T2 sequence (P27487 whole entry): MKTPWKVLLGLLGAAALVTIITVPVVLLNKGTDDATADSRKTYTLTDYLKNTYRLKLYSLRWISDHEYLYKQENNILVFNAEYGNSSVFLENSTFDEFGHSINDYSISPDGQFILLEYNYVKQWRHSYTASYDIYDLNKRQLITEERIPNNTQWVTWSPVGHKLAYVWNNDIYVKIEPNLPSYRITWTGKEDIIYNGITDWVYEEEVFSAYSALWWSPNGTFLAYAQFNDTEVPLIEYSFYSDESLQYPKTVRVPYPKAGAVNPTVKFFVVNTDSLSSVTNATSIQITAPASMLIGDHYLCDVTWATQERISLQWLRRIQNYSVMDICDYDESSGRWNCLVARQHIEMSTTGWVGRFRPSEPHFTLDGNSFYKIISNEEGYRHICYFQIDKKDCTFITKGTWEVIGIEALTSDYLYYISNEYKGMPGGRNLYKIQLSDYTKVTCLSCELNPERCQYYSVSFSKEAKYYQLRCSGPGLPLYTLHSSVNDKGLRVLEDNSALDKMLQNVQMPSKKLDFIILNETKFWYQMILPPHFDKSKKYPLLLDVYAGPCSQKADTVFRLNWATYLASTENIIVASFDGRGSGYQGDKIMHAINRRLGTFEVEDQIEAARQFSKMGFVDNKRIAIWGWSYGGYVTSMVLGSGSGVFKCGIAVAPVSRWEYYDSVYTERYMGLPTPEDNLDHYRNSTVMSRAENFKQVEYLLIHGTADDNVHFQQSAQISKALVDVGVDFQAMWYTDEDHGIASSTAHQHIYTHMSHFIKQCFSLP
Method: The concentration of free 7-amino-4-methyl-coumarin (AMC) generated by hydrolysis of H-Gly-Pro-AMC.HBr substrate by plasma dipeptidylpeptidase IV was determined by fluorometry.
A 20 μL of buffer (25 mmol/L hepes, 140 mmol/L sodium chloride, 1% bovine serum albumin, 80 mmol/L magnesium chloride hexahydrate, pH 7.4) containing each compound was added to 20 μL of plasma diluted 8-fold with saline in a well of a 96-well flat bottom plate. The plate was left at room temperature for 5 minutes and 10 μL of 0.1 mmol/L H-Gly-Pro-AMC.HBr solution was added to each well to initiate the reaction. […] Using a fluorescent plate reader, the free AMC concentration was determined by exciting the samples at 355 nm and measuring the fluorescence intensity at 460 nm.

SMILES | inhibition at 100 µg/mL (stock) [1] [%] | IC50 [2] [nM]
CCOC(=O)C12CCC(NCC(=O)N3C[C@@H](F)C[C@H]3C#N)(CC1)CC2 [Example 1, (2S,4S)-1-[[N-(4-ethoxycarbonylbicyclo[2.2.2]oct-1-yl)amino]acetyl]-4-fluoropyrrolidine-2-carbonitrile] | 100 | 0.25
N#C[C@@H]1C[C@H](F)CN1C(=O)CNC12CCC(C(=O)OCC3CC3)(CC1)CC2 [Example 9, (2S,4S)-1-[[N-(4-cyclopropylmethyloxycarbonylbicyclo[2.2.2]oct-1-yl)amino]acetyl]-4-fluoropyrrolidine-2-carbonitrile] | 94 | 0.48
N#C[C@@H]1C[C@H](F)CN1C(=O)CNC12CCC(C(=O)OCc3ccc(C(F)(F)F)cc3)(CC1)CC2 [Example 10, (2S,4S)-4-fluoro-1-[[N-[4-(4-trifluoromethylbenzyl)oxycarbonylbicyclo[2.2.2]oct-1-yl]amino]acetyl]pyrrolidine-2-carbonitrile] |  | 0.23
CC(C)COC(=O)C12CCC(NCC(=O)N3C[C@@H](F)C[C@H]3C#N)(CC1)CC2 [Example 11, (2S,4S)-4-fluoro-1-[[N-[4-(2-methylpropyl)oxycarbonylbicyclo[2.2.2]oct-1-yl]amino]acetyl]pyrrolidine-2-carbonitrile] | 93 | 0.13
